According to US20190343908A1, “Therapeutic Combination for the Treatment of Cancer” (Nerium Biotechnology Inc., priority 2011, published 2019):

Key:
[1] = system: CALU-1 (non-small cell lung carcinoma); test: Crystal Violet viability assay, CALU-1; assay type: cell-based, human
Source text: (§1) The Sulforhodamine B and Crystal Violet assays provide information about protein and were used to complement the Methyl-Tetrazolium dye assay. […] It is used for the quantification of cellular proteins of cultured cells. The assay using Crystal Violet, a dye that binds electrostatically to proteins and stains DNA, provides a reliable, simple assay for measuring viability of cells.
(§2) The Methyl Tetrazolium, Sulforhodamine B, and Crystal Violet assays were used to assess cell viabilities. The incubation times were 24 hours, 48 hours, and 72 hours. The Nerium oleander extract Anvirzel™ (a hot water extract of oleander obtained from Salud Integral, Honduras) was tested in concentrations ranging from 0.01 ng/mL to 10 ng/mL.
(§3) Cells were detached by trypsinization (Trypsin-0.25% EDTA, Invitrogen, 25200-072) during the logarithmic phase of culture growth and plated in 96-well plates (18.000 cells/well) (Corning, Costar 359) in a final volume of 200 μl of medium per well. […] The absorbance was measured after 24 hours, 48 hours, and 72 hours of incubation.
For the Crystal Violet assay, the medium was removed from the 96-well plates, the plates rinsed with PBS (Sigma, P3813) and then the cells were […] by the addition of 10% formalin (MERCK, 1.04003.2500) for 20 minutes at RT. Formalin was removed and 0.25% aqueous crystal violet (Sigma, HT901), dissolved in water, was added for 10 minutes at RT. Unbound Crystal Violet was rinsed by washing with water and finally 33% acetic acid was added to dissolve the dye.
(§4) The optical density of each plate was measured on a μQuant spectrophotometer and the data were analyzed with Gen5 software (μQuant Biomolecular Spectrophotometer MQX200 and Gen5™ Microplate Data Collection & Analysis software, BioTek® Instruments. Inc, April 2008). Absorbance was measured at 570 nm for all assays and a second wavelength was measured in order to subtract noise. For the Methyl-Tetrazolium assay this second wavelength was 630 nm and for the Sulforhodamine B and Crystal Violet assays it was 690 nm.

[2] = system: MDA-MB 231 (human breast cancer); test: Crystal Violet viability assay, MDA-MB 231; assay type: cell-based; settings: for CVE 24 h / CVE 48 h / CVE 72 h: Run 3 average
Source text: as §1, §2, §3
[…] Formalin was removed and 0.25% aqueous crystal violet (Sigma, HT901), dissolved in water, was added for 10 minutes at RT. Unbound Crystal Violet was rinsed by washing with water and finally 33% acetic acid was added to dissolve the dye.
as §4

In the case of N.N.[Cl][Pt][Cl] [cisplatin], the “Average CVE 24 h” value ([1]; CALU-1 Run 1, 0.1 μg/ml CDDP) is reported as 0.554, the “Average CVE 48 h” value ([1]; CALU-1 Run 1, 0.1 μg/ml CDDP) is reported as 0.652 and the “Average CVE 72 h” value ([1]; CALU-1 Run 1, 0.1 μg/ml CDDP) is reported as 0.441. The “Average CVE 24 h” value ([1]; CALU-1 Run 1, 1 μg/ml CDDP) was 0.231, the “Average CVE 48 h” value ([1]; CALU-1 Run 1, 1 μg/ml CDDP) was 0.661 and the “Average CVE 72 h” value ([1]; CALU-1 Run 1, 1 μg/ml CDDP) was 0.135. For the same molecule, the “Average CVE 24 h” value ([1]; CALU-1 Run 1, 10 μg/ml CDDP) was 0.421, the “Average CVE 48 h” value ([1]; CALU-1 Run 1, 10 μg/ml CDDP) was 0.503 and the “Average CVE 72 h” value ([1]; CALU-1 Run 1, 10 μg/ml CDDP) was 0.157. For the same molecule, the “Average CVE 24 h” value ([1]; CALU-1 Run 1, 100 μg/ml CDDP) was 0.306, the “Average CVE 48 h” value ([1]; CALU-1 Run 1, 100 μg/ml CDDP) was 0.409 and the “Average CVE 72 h” value ([1]; CALU-1 Run 1, 100 μg/ml CDDP) was 0.125. The “Average CVE 24 h” value ([1]; CALU-1 Run 2, 0.1 μg/ml CDDP) was 0.484, the “Average CVE 48 h” value ([1]; CALU-1 Run 2, 0.1 μg/ml CDDP) was 0.886 and the “Average CVE 72 h” value ([1]; CALU-1 Run 2, 0.1 μg/ml CDDP) was 0.786. For the same molecule, the “Average CVE 24 h” value ([1]; CALU-1 Run 2, 1 μg/ml CDDP) was 0.576, the “Average CVE 48 h” value ([1]; CALU-1 Run 2, 1 μg/ml CDDP) was 0.563 and the “Average CVE 72 h” value ([1]; CALU-1 Run 2, 1 μg/ml CDDP) was 0.214. The “Average CVE 24 h” value ([1]; CALU-1 Run 2, 10 μg/ml CDDP) was 0.64, the “Average CVE 48 h” value ([1]; CALU-1 Run 2, 10 μg/ml CDDP) was 0.46 and the “Average CVE 72 h” value ([1]; CALU-1 Run 2, 10 μg/ml CDDP) was 0.254. For the same molecule, the “Average CVE 24 h” value ([1]; CALU-1 Run 2, 100 μg/ml CDDP) was 0.416, the “Average CVE 48 h” value ([1]; CALU-1 Run 2, 100 μg/ml CDDP) was 0.352 and the “Average CVE 72 h” value ([1]; CALU-1 Run 2, 100 μg/ml CDDP) was 0.344. For the same molecule, the “Average CVE 24 h” value ([1]; CALU-1 Run 3, 0.1 μg/ml CDDP, 24 h) was 0.492, the “Average CVE 48 h” value ([1]; CALU-1 Run 3, 0.1 μg/ml CDDP, 48 h) was 0.389 and the “Average CVE 72 h” value ([1]; CALU-1 Run 3, 0.1 μg/ml CDDP, 72 h) was 0.505. The “Average CVE 24 h” value ([1]; CALU-1 Run 3, 1 μg/ml CDDP, 24 h) was 0.255, the “Average CVE 72 h” value ([1]; CALU-1 Run 3, 1 μg/ml CDDP, 72 h) was 0.184 and the “Average CVE 24 h” value ([1]; CALU-1 Run 3, 10 μg/ml CDDP, 24 h) was 0.558. The “Average CVE 48 h” value ([1]; CALU-1 Run 3, 10 μg/ml CDDP, 48 h) was 0.175, the “Average CVE 72 h” value ([1]; CALU-1 Run 3, 10 μg/ml CDDP, 72 h) was 0.189 and the “Average CVE 24 h” value ([1]; CALU-1 Run 3, 100 μg/ml CDDP, 24 h) was 0.375. The “Average CVE 48 h” value ([1]; CALU-1 Run 3, 100 μg/ml CDDP, 48 h) was 0.159, the “Average CVE 72 h” value ([1]; CALU-1 Run 3, 100 μg/ml CDDP, 72 h) was 0.197 and the “CVE 24 h Average” value ([2]; Run 1, 0.1 μg/ml CDDP) was 0.161. For the same molecule, the “CVE 48 h Average” value ([2]; Run 1, 0.1 μg/ml CDDP) was 0.939, the “CVE 72 h Average” value ([2]; Run 1, 0.1 μg/ml CDDP) was 0.768 and the “CVE 24 h Average” value ([2]; Run 1, 1 μg/ml CDDP) was 0.124. For the same molecule, the “CVE 48 h Average” value ([2]; Run 1, 1 μg/ml CDDP) was 0.549, the “CVE 72 h Average” value ([2]; Run 1, 1 μg/ml CDDP) was 0.375 and the “CVE 48 h Average” value ([2]; Run 1, 10 μg/ml CDDP) was 0.586. The “CVE 72 h Average” value ([2]; Run 1, 10 μg/ml CDDP) was 0.416, the “CVE 24 h Average” value ([2]; Run 1, 100 μg/ml CDDP) was 0.098 and the “CVE 48 h Average” value ([2]; Run 1, 100 μg/ml CDDP) was 0.504. The “CVE 72 h Average” value ([2]; Run 1, 100 μg/ml CDDP) was 0.538, the “CVE 24 h Average” value ([2]; Run 2, 0.1 μg/ml CDDP) was 0.118 and the “CVE 48 h Average” value ([2]; Run 2, 0.1 μg/ml CDDP) was 0.305. For the same molecule, the “CVE 72 h Average” value ([2]; Run 2, 0.1 μg/ml CDDP) was 0.485, the “CVE 24 h Average” value ([2]; Run 2, 1 μg/ml CDDP) was 0.042 and the “CVE 48 h Average” value ([2]; Run 2, 1 μg/ml CDDP) was 0.047. For the same molecule, the “CVE 72 h Average” value ([2]; Run 2, 1 μg/ml CDDP) was 0.036, the “CVE 24 h Average” value ([2]; Run 2, 10 μg/ml CDDP) was 0.125 and the “CVE 48 h Average” value ([2]; Run 2, 10 μg/ml CDDP) was 0.27. For the same molecule, the “CVE 72 h Average” value ([2]; Run 2, 10 μg/ml CDDP) was 0.301, the “CVE 24 h Average” value ([2]; Run 2, 100 μg/ml CDDP) was 0.074 and the “CVE 48 h Average” value ([2]; Run 2, 100 μg/ml CDDP) was 0.062. For the same molecule, the “CVE 72 h Average” value ([2]; Run 2, 100 μg/ml CDDP) was 0.11, the “CVE 24 h” value ([2]; 0.1 μg/ml CDDP) was 1.198 and the “CVE 48 h” value ([2]; 0.1 μg/ml CDDP) was 1.239. For the same molecule, the “CVE 72 h” value ([2]; 0.1 μg/ml CDDP) was 1.573, the “CVE 24 h” value ([2]; 1 μg/ml CDDP) was 0.528 and the “CVE 48 h” value ([2]; 1 μg/ml CDDP) was 0.231. The “CVE 72 h” value ([2]; 1 μg/ml CDDP) was 0.144, the “CVE 24 h” value ([2]; 10 μg/ml CDDP) was 0.693 and the “CVE 48 h” value ([2]; 10 μg/ml CDDP) was 0.79. For the same molecule, the “CVE 72 h” value ([2]; 10 μg/ml CDDP) was 0.472, the “CVE 24 h” value ([2]; 100 μg/ml CDDP) was 0.168 and the “CVE 48 h” value ([2]; 100 μg/ml CDDP) was 0.154. The “CVE 72 h” value ([2]; 100 μg/ml CDDP) was 0.089.
